Test results taken from US20040024024A1, “Aromatic sulfone hydroxamates and their use as protease inhibitors” (priority 2001, published 2004).

Assays:
Test in all cases: In vitro MMP inhibition, IC50 determination (fluorogenic substrate I)
Assay type in all cases: biochemical
Conditions in all cases: value outside parenthesis
[1] = molecular target: T1, Human recombinant MMP-1 (Homo sapiens, UniProt P03956)
T1 construct: made in house; host or cells: MMP-1-transfected HT-1080 cells (spent media)
T1 sequence (P03956 100-469): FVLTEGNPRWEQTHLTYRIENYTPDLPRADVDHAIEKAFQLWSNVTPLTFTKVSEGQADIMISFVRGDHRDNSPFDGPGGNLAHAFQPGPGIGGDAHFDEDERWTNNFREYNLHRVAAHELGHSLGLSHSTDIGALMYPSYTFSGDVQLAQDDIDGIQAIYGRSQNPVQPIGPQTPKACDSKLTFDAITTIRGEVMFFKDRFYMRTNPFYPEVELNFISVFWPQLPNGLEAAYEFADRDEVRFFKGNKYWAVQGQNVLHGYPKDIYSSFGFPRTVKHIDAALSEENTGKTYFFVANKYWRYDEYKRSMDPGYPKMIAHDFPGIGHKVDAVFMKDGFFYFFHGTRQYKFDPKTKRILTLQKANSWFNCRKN
Summary of the method: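 APMA- or trypsin-activated enzyme, purified from spent media of transfected HT-1080 cells, incubated at room temperature with 4 μM MCA-Pro-Leu-Gly-Leu-Dpa-Ala-Arg-NH2 and graded inhibitor in Tris buffer pH 7.5 (10 mM CaCl2, 0.05% Brij). Cleavage read by fluorescence (ex 328/em 415 nm); IC50 from fluorescence reduction versus inhibitor concentration.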

[2] = molecular target: T2, Human recombinant MMP-2 (Homo sapiens, UniProt P08253)
T2 construct: made in house; host or cells: MMP-2-transfected p2AHT2 cells
T2 sequence (P08253 110-660): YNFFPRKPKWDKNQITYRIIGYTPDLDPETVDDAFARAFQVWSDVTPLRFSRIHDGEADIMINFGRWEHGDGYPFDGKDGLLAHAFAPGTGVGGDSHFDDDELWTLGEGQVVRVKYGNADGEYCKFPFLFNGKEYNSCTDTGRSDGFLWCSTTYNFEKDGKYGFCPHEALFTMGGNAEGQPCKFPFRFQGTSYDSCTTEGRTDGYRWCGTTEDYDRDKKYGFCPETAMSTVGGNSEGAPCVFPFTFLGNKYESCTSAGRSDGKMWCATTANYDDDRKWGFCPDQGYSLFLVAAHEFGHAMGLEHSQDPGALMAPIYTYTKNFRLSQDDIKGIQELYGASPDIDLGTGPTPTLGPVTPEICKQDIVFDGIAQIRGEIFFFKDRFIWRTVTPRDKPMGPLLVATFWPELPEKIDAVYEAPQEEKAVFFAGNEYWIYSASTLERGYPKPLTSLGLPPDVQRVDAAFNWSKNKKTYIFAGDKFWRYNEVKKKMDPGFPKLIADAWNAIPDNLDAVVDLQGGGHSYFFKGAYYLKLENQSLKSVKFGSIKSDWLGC
Summary of the method: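 APMA- or trypsin-activated recombinant MMP-2 was incubated at room temperature with serial inhibitor dilutions in Tris buffer pH 7.5 (100 mM NaCl, 10 mM CaCl2, 0.05% Brij), with DMSO from 1% stocks, and 4 μM substrate I. Cleavage was read by fluorescence at 328/415 nm; IC50 was taken from the loss of fluorescence versus inhibitor concentration.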

[3] = molecular target: T3, Human recombinant MMP-9 (Homo sapiens, UniProt P14780)
T3 construct: made in house; host or cells: MMP-9-transfected HT1080 cells (spent media)
T3 sequence (P14780 107-707 limits assumed): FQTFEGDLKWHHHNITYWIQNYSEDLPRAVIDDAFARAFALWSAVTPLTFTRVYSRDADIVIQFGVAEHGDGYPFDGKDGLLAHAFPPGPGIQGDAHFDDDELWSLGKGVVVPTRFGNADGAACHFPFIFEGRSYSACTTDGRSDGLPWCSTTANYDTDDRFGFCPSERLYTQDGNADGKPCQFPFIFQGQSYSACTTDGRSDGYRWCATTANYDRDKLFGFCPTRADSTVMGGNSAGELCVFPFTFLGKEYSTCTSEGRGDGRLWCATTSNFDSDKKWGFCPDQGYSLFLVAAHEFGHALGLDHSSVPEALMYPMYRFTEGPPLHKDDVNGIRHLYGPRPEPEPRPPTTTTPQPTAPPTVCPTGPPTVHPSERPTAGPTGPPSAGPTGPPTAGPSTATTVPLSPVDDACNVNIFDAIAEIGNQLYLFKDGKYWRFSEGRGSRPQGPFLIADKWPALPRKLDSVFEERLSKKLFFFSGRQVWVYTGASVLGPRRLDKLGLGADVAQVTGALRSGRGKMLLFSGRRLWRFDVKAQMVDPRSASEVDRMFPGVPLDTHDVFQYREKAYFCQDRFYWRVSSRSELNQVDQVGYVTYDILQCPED
Summary of the method: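 MMP-9 proenzyme purified from transfected HT1080 cell media, activated with APMA or trypsin. Compound dilutions in pH 7.5 Tris/NaCl/CaCl2 buffer with 0.05% polyoxyethylene 23 lauryl ether, incubated at room temperature with 4 μM MCA/Dpa substrate I. IC50 from fluorescence loss (ex 328, em 415 nm) versus inhibitor concentration.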

[4] = molecular target: T4, Human recombinant MMP-13 (Homo sapiens, UniProt P45452)
T4 construct: made in house; host or cells: baculovirus / insect cells
Summary of the method: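 Fluorescence at 415 nm (excitation 328 nm) reports Gly-Leu cleavage of 4 μM quenched methoxycoumarin peptide substrate I. Human recombinant MMP-13, activated by trypsin or APMA, was incubated at room temperature with varied inhibitor concentrations in pH 7.5 Tris/NaCl/CaCl2 buffer; IC50 derived from reduced fluorescence.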

[5] = molecular target: T5, Human recombinant MMP-14 (Homo sapiens, UniProt P50281)
T5 construct: The catalytic domain enzyme was expressed in E. coli inclusion bodies, solubilized in urea; made in house
Summary of the method: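 Catalytic-domain MMP-14, expressed in E. coli and refolded, activated with APMA or trypsin; compounds incubated at room temperature with 4 μM fluorogenic substrate I (MCA-PLGL-Dpa-AR-NH2) in Tris/NaCl/CaCl2 buffer, pH 7.5. Fluorescence at ex 328/em 415 nm; IC50 from loss of fluorescence versus inhibitor concentration.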

Row | IC50 [1] | IC50 [2] | IC50 [3] | IC50 [4] | IC50 [5] | SMILES
1 | > 10 µM | 0.174 µM | 6.23 µM | 0.0005 µM | > 10 µM | O=C(NO)C1(S(=O)(=O)c2ccc(OCCCc3nnc(-c4ccc(-c5ccccc5)cc4)o3)cc2)CCOCC1 [Example 257]
2 | > 10 µM | 0.173 µM | 1.96 µM | 0.0017 µM | > 10 µM | Cc1cccc(-c2nnc(CCCOc3ccc(S(=O)(=O)C4(C(=O)NO)CCOCC4)cc3)o2)c1 [Example 258]
3 | 7.26 µM | 0.201 µM | 1.88 µM | 0.0007 µM | > 10 µM | Cc1ccc(-c2nnc(CCCOc3ccc(S(=O)(=O)C4(C(=O)NO)CCOCC4)cc3)o2)cc1 [Example 259]
4 | 1.16 µM | 0.0132 µM | 0.391 µM | 0.0018 µM | > 10 µM | O=C(NO)C1(S(=O)(=O)c2ccc(OCCCc3nnc(-c4ccc(Cl)cc4)o3)cc2)CCOCC1 [Example 260]
5 | > 10 µM | 0.178 µM | 1.19 µM | 0.0019 µM | > 10 µM | O=C(NO)C1(S(=O)(=O)c2ccc(OCCCc3nnc(-c4ccccc4Cl)o3)cc2)CCOCC1 [Example 261]
6 | > 10 µM | 0.118 µM | 1.7 µM | 0.003 µM | > 10 µM | O=C(NO)C1(S(=O)(=O)c2ccc(OCCCc3nnc(CC4CCCCC4)o3)cc2)CCOCC1 [Example 262]
7 | > 10 µM | 0.163 µM | 0.287 µM | 0.0053 µM | > 10 µM | CCOc1ccccc1-c1noc(CCCOc2ccc(S(=O)(=O)C3(C(=O)NO)CCOCC3)cc2)n1 [Example 264]
8 | > 10 µM | 0.391 µM | 0.203 µM | 0.0091 µM | > 10 µM | O=C(NO)C1(S(=O)(=O)c2ccc(OCCCc3nc(-c4cccc(OC(F)(F)F)c4)no3)cc2)CCOCC1 [Example 266]
9 | > 10 µM | 0.126 µM | 0.674 µM | 0.0025 µM | > 10 µM | CCOc1ccc(-c2noc(CCCOc3ccc(S(=O)(=O)C4(C(=O)NO)CCN(C5CC5)CC4)cc3)n2)cc1 [Example 268]

The remaining lines, values behind:

Row | SMILES | IC50 [1] | IC50 [2] | IC50 [3] | IC50 [4] | IC50 [5]
10 | O=C(NO)C1(S(=O)(=O)c2ccc(OCCCc3nnc(Cl)o3)cc2)CCOCC1 [Example 244] | 3.25 µM | 0.0188 µM | 0.108 µM | 0.0007 µM | > 10 µM
11 | COCCN1CCC(C(=O)NO)(S(=O)(=O)c2ccc(OCCCCC(=O)c3ccc(OC)cc3)cc2)CC1 [Example 245] | > 10 µM | 0.0086 µM | 0.0611 µM | 0.0002 µM | > 10 µM
12 | CC(C)c1ccc(C(=O)NNC(=O)CCCOc2ccc(S(=O)(=O)C3(C(=O)NO)CCOCC3)cc2)cc1 [Example 246] | 1.17 µM | 0.0075 µM | 0.105 µM | 0.003 µM | > 10 µM
13 | CC(C)c1ccc(-c2nnc(CCCOc3ccc(S(=O)(=O)C4(C(=O)NO)CCOCC4)cc3)o2)cc1 [Example 247] | 3.61 µM | 0.445 µM | 0.341 µM | 0.0011 µM | > 10 µM
14 | COCCN1CCC(C(=O)NO)(S(=O)(=O)c2ccc(OCCCCC(=O)c3ccc(N(C)C)cc3)cc2)CC1 [Example 248] | > 10 µM | 0.0157 µM | 0.106 µM | 0.0002 µM | 1.7 µM
15 | COc1ccc(-c2nnn(CCCOc3ccc(S(=O)(=O)C4(C(=O)NO)CCOCC4)cc3)n2)cc1 [Example 252] | 5.6 µM | 0.0479 µM | 1.05 µM | 0.0002 µM | > 10 µM
16 | Cc1cc(C(=O)CCCCOc2ccc(S(=O)(=O)C3(C(=O)NO)CCN(C4CC4)CC3)cc2)ccc1OC(C)C [Example 254] | > 10 µM | 0.138 µM | 0.968 µM | 0.0017 µM | > 10 µM
17 | COc1ccc(CCCCc2ccc(S(=O)(=O)C3(C(=O)NO)CCOCC3)cc2)cc1 [Example 256] | > 10 µM | 0.0001 µM | 0.0379 µM | < 0.0001 µM | > 10 µM
